Assay results: publication PMC10518255, “A first-in-class pan-lysyl oxidase inhibitor impairs stromal remodeling and enhances gemcitabine response and survival in pancreatic cancer” (Nature Cancer, 2023)
“And” between values parts separate entries of the source, which are not always exact repeats. Identical values can stand only once.

Tests used:
Plasma stability = assay type: in vitro ADME; conditions: In vitro (human)
[1] = test system: KPC CAF remodeled 3D collagen matrices; assay: Matrix stiffness by unconfined compression testing of organotypic matrices; assay type: cell-based, mouse; conditions: day 12, PXS-5505 30 µM, normalized to control, individual samples
Procedure: Fig. 3 PXS-5505 inhibition of CAF remodeling in vitro. a, Quantitative PCR with reverse transcription (qRT–PCR) showing in vitro comparison of KPC CAF relative expression of lysyl oxidase family members compared to KPC CCs from the same model (n = 3 biologically independent samples). Comparisons were determined by 2^–∆∆Ct approach. b, Representative images of 3D organotypic matrix contraction assay at days 2, 6 and 12 in the absence (gray) or presence (pink) of PXS-5505 (30 µM). Scale bars, 5 mm. Comparison of measured area of matrices between control and PXS-5505 treatment groups over time (n = 3 technical samples examined over three biologically independent samples). Data are mean ± s.d. c, Concentration of immature divalent DHLNL and mature trivalent Pyr collagen crosslinks determined by LC–MS from control and PXS-5505-treated organotypic matrices at day 12 (n = 3 technical samples examined over two biologically independent samples). Data are mean ± s.d. […] Data are presented as mean ± s.d. […] Comparison of number of CCs invaded per field of view (FOV) as determined by H&E and PanCK staining (nine images taken from three technical samples from each of three biologically independent contracted matrices), normalized to control. Data are mean ± s.d. Scale bars, 100 μm. […] Source data […]

For `Cl.Cl.NC/C=C(\F)CS(=O)(=O)c1cccc2cccnc12.O` [PXS-5505, (Z)-3-fluoro-4-(quinolin-8-ylsulfonyl)but-2-en-1-amine dihydrochloride monohydrate], the remaining at 1 h (Plasma stability) was 97% and the “matrix stiffness by unconfined compression testing” value [1] was 0.918 and 0.779 and 0.916 and 0.962 and 0.835 and 0.748 and 0.939 and 0.975.
